Assay results from patent US10039845B2, “Labeled inhibitors of prostate specific membrane antigen (PSMA) biological evaluation, and use of imaging agents” (THE JOHNS HOPKINS UNIVERSITY, priority 2007, dated 2018).

Assays:
PSMA = target: T1, PSMA (Homo sapiens, UniProt Q04609); assay: NAALADase assay (NAAG hydrolysis, LNCaP cell extracts); assay type: biochemical; details: for Ki: LNCaP cell extracts, Cheng-Prusoff conversion, read-out: Ki (PSMA inhibitory activity)
T1 construct: LNCaP cell extracts were prepared by sonication in NAALADase buffer; endogenous in cells; host or cells: LNCaP cell extract (sonicated in 50 mM Tris pH 7.4, 0.5% Triton X-100)
Method: The relative binding affinities of L1-L7 and ReL1-ReL7, were determined using the N-acetylated-α-linked acidic dipeptidase (NAALADase) assay as previously described.
NAAG hydrolysis was performed essentially as described previously (Robinson, M. B.; et al. J Biol Chem 1987, 262, 14498-14506; Lupold, S. E.; et al. Cancer Res 2002, 62, 4029-4033.). In short, LNCaP cell extracts were prepared by sonication in NAALADase buffer [50 mM Tris (pH 7.4) and 0.5% Triton X-100]. Cell lysates were incubated with or without inhibitor at 37° C. for 10 minutes. Following the incubation the radiolabeled substrate N-acetyl-L-aspartyl-L-(3,4-^3H)glutamate (NEN Life Science Products, Boston, Mass.) was added to a final concentration of 30 nM at 37° C. for 10-15 min. The reaction was stopped by the addition of an equal volume of ice-cold 100 mM sodium phosphate and 2 mM EDTA. Products were partitioned by AG 1-X8 formate resin (Bio-Rad Laboratories) anion exchange chromatography, eluted with 1 M sodium formate, and quantified by liquid scintillation counting. […] Assays were performed in triplicate with the entire inhibition study being repeated at least once to confirm affinity and mode of inhibition. Data were collected during linear phase of hydrolysis (i.e., <20% cleavage of total substrate). Enzyme inhibitory constants (Ki values) were generated using the Cheng-Prusoff conversion (Cheng, Y.; Prusoff, W. H. Biochem Pharmcol 1973, 22, 3099-3108).

[1] = tested on: PSMA+ PC3 PIP and PSMA− PC3 flu xenografts; details: for PIP (PSMA+) tumor uptake on SPECT-CT: SCID mice, 0.5-1 mCi i.v., imaged at 45 min p.i.; for uptake in normal organs (gallbladder, liver, kidneys) on SPECT-CT: mouse, in vivo, iv; for tumor contrast on late SPECT-CT images: several hours after injection (3.5-4 h uptake period)
[2] = Metabolite studies (HPLC of tissue extracts, plasma, urine); assay type: in vivo, mice
Method: Mice were sacrificed at either 30 min or 1 h postinjection by cervical dislocation and their blood and selected organs were removed. Blood samples were withdrawn using heparinized syringes and tissues were placed on ice prior to manual homogenization in PBS, pH 7.4. Plasma and tissue homogenates in PBS were centrifuged for 2 min at 13,000×g at ambient temperature. A portion of the supernatant was diluted to 4 mL in 8 M urea containing 50 mg citric acid. Urine samples were added directly to 4 mL of the acidified urea solution. Samples then underwent separation by HPLC as previously described (Hilton, J.; et al. Nucl Med Biol 2000, 27, 627-630). Briefly, the 4 mL sample in 8 M acidified urea was passed through a capture column (Strata-X, 19×4.4 mm, Phenomenex, Torrance, Calif.) at 2 mL/min followed by 1% acetonitrile in water to wash plasma proteins from the column. The effluent from the capture column, containing only highly polar components, flowed through a dual BGO detector (Bioscan, Washington, D.C.) operating in the […]. The solvent was then switched to 30% acetonitrile:50 mM phosphate buffer at pH 2.4 (2 mL/min) for elution of the radiolabeled components previously bound to the capture column onto the analytical column (Synergi Polar-RP 250×4.6 mm 10 micron particle size Phenomenex).

[3] = tested on: PSMA+ PC3 PIP and PSMA− PC3 flu xenografts; details: mouse, in vivo

T1 sequence (Q04609 whole entry): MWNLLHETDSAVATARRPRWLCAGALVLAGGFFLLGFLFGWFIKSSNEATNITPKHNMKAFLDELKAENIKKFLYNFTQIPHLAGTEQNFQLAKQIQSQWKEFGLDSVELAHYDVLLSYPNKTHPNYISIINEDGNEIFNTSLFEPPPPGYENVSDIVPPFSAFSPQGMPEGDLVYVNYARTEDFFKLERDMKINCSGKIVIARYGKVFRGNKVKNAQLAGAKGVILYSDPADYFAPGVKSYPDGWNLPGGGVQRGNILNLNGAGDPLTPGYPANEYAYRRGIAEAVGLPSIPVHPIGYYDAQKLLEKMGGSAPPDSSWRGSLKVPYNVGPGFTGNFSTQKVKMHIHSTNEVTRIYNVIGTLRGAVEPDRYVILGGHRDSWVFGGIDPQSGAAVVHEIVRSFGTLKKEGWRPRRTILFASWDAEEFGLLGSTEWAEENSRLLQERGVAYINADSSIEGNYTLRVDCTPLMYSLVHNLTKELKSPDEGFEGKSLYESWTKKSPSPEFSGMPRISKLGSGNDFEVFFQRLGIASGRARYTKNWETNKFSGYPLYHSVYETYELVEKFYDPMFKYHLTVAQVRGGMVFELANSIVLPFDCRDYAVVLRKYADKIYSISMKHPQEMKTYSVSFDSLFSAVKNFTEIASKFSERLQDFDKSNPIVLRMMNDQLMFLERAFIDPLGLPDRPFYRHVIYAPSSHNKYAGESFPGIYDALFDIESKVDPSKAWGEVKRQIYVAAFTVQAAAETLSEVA

**Q.** With O=C(O)CCC(NC(=O)NC(CCCCNC(=O)CCCCCCC(=O)NCCCCC(C(=O)O)N(Cc1ccccn1)Cc1ccccn1)C(=O)O)C(=O)O (centres unmarked) [Compound L3, 2-[3-(5-{7-[5-(Bis-pyridin-2-ylmethyl-amino)-5-carboxy-pentylcarbamoyl]-heptanoylamino}-1-carboxy-pentyl)-ureido]-pentanedioic acid] as the compound, how does the Ki (PSMA) read?
**A.** 1.08 nM

**Q.** For O=C(O)CCC(NC(=O)NC(CCCCNC(=O)CCCCCCC(=O)NCCCCCCN(CC(=O)O)Cc1ccccn1)C(=O)O)C(=O)O (centres unmarked) [Compound L4, 2-[3-(1-Carboxy-5-{7-[6-(carboxymethyl-pyridin-2-ylmethyl-amino)-hexylcarbamoyl]-heptanoylamino}-pentyl)-ureido]-pentanedioic acid], which Ki (PSMA) is on record?
**A.** 2.54 nM

**Q.** With O=C(O)CCC(NC(=O)NC(CCCCNC(=O)CCCCCCCN(Cc1ccccn1)Cc1ccccn1)C(=O)O)C(=O)O (centres unmarked) [Compound L5, 2-(3-{5-[8-(Bis-pyridin-2-ylmethyl-amino)-octanoylamino]-1-carboxy-pentyl}-ureido)-pentanedioic acid] as the compound, how does the Ki (PSMA) read?
**A.** 1.86 nM

**Q.** For O=C(O)CCC(NC(=O)NC(CCCCN(Cc1ccccn1)Cc1ccccn1)C(=O)O)C(=O)O (centres unmarked) [Compound L6, 2-{3-[5-(Bis-pyridin-2-ylmethyl-amino)-1-carboxy-pentyl]-ureido}-pentanedioic acid], which Ki (PSMA) is on record?
**A.** 7.53 nM

**Q.** Which Ki (PSMA) does the source give for O=C(O)CCC(NC(=O)NC(CCCCNC(=O)CCCCCCC(=O)NCCCCCCN(Cc1ccccn1)Cc1ccccn1)C(=O)O)C(=O)O (centres unmarked) [Compound L7, 2-[3-(5-{7-[6-(Bis-pyridin-2-ylmethyl-amino)-hexylcarbamoyl]-heptanoylamino}-1-carboxy-pentyl)-ureido]-pentanedioic acid] here?
**A.** 0.45 nM

**Q.** Which IC50 (PSMA) does the source give for O=C(O)CCC(NC(=O)NC(CCCCNC(=O)CCCCCCC(=O)NC(CCCCNC(=O)CN1CCN(CC(=O)O)CCN(CC(=O)O)CCN(CC(=O)O)CC1)C(=O)O)C(=O)O)C(=O)O (centres unmarked) [DOTA-L1, 2-{3-[1-Carboxy-5-(7-{1-carboxy-5-[2-(4,7,10-tris-carboxymethyl-1,4,7,10tetraaza-cyclododec-1-yl)-acetylamino]-pentylcarbamoyl}-heptanoylamino)-pentyl]-ureido}-pentanedioic acid] here?
**A.** 0.8 nM

**Q.** With O=C(O)CCC(NC(=O)NC(CCCCNC(=O)CCCCCCC(=O)NCCCCC(C(=O)O)N(Cc1ccccn1)Cc1ccccn1)C(=O)O)C(=O)O.[Br-].[C-]#[O+].[C-]#[O+].[C-]#[O+].[Re+] (stereo not drawn) [ReL3, Tricarbonyl(2-[3-(5-{7-[5-(bis-pyridin-2-ylmethyl-amino)-5-carboxy-pentylcarbamoyl]-heptanoylamino}-1-carboxy-pentyl)-ureido]-pentanedioic acid)rehenium bromide] as the compound, how does the Ki (PSMA) read?
**A.** 10.3 nM

**Q.** For O=C(O)CCC(NC(=O)NC(CCCCNC(=O)CCCCCCC(=O)NCCCCCCN(CC(=O)[O][Re])Cc1ccccn1)C(=O)O)C(=O)O.[C-]#[O+].[C-]#[O+].[C-]#[O+] (stereo not drawn) [ReL4, Tricarbonyl(2-[3-(1-carboxy-5-{7-[6-(carboxymethyl-pyridin-2-ylmethyl-amino)-hexylcarbamoyl]-heptanoylamino}-pentyl)-ureido]-pentanedioic acid) rhenium], which Ki (PSMA) is on record?
**A.** 0.17 nM

**Q.** And the “fold higher PSMA inhibitory potency than ReL7” value (PSMA; relative to ReL7)?
**A.** about 12 fold

**Q.** Which Ki (PSMA) does the source give for O=C(O)CCC(NC(=O)NC(CCCCNC(=O)CCCCCCCN(Cc1ccccn1)Cc1ccccn1)C(=O)O)C(=O)O.[Br-].[C-]#[O+].[C-]#[O+].[C-]#[O+].[Re+] (stereo not drawn) [ReL5, Tricarbonyl(2-(3-{5-[8-(bis-pyridin-2-ylmethyl-amino)-octanoylamino]-1-carboxy-pentyl}-ureido)-pentanedioic acid)rhenium bromide] here?
**A.** 0.91 nM

**Q.** For O=C(O)CCC(NC(=O)NC(CCCCN(Cc1ccccn1)Cc1ccccn1)C(=O)O)C(=O)O.[Br-].[C-]#[O+].[C-]#[O+].[C-]#[O+].[Re+] (stereo not drawn) [ReL6, Tricarbonyl(2-{3-[5-(bis-pyridin-2-ylmethyl-amino)-1-carboxy-pentyl]-ureido}-pentanedioic acid)rhenium bromide], which Ki (PSMA) is on record?
**A.** 200 nM

**Q.** With O=C(O)CCC(NC(=O)NC(CCCCNC(=O)CCCCCCC(=O)NCCCCCCN(Cc1ccccn1)Cc1ccccn1)C(=O)O)C(=O)O.[Br-].[C-]#[O+].[C-]#[O+].[C-]#[O+].[Re+] (stereo not drawn) [ReL7, Tricarbonyl(2-[3-(5-{7-[6-(Bis-pyridin-2-ylmethyl-amino)-hexylcarbamoyl]-heptanoylamino}-1-carboxy-pentyl)-ureido]-pentanedioic acid)rhenium bromide] as the compound, how does the Ki (PSMA) read?
**A.** 2.06 nM

**Q.** Which “PIP (PSMA+) tumor uptake on SPECT-CT” value [1] does the source give for O=C(O)CC[C@H](NC(=O)N[C@@H](CCCCNC(=O)CCCCCCC(=O)N[C@@H](CCCCN(Cc1ccccn1)Cc1ccccn1)C(=O)O)C(=O)O)C(=O)O.[99Tc+].[C-]#[O+].[C-]#[O+].[C-]#[O+] [[^99mTc]L1] here?
**A.** strongly positive PIP tumor

**Q.** What about the “uptake in normal organs (gallbladder, liver, kidneys) on SPECT-CT” value (from here on “uptake in normal organs”) [1] of the same compound?
**A.** gallbladder uptake and clear visualization of the kidneys

**Q.** And the “tumor contrast on late SPECT-CT images” value [1]?
**A.** higher contrast of tumor with respect to background

**Q.** What about the “chromatographed radioactivity as the parent compound” value ([2]; all other tissue extracts, plasma and urine at 30 and 60 min postinjection) of the same compound?
**A.** 100%

**Q.** What about the “extracted radioactivity as a polar metabolite” value ([2]; mouse kidney extracted 60 min after injection) of the same compound?
**A.** 2%

**Q.** For O=C(O)CC[C@H](NC(=O)N[C@@H](CCCCNC(=O)CCCCCCC(=O)N[C@@H](CCCCN(Cc1ccc2ccccc2n1)Cc1ccc2ccccc2n1)C(=O)O)C(=O)O)C(=O)O.[99Tc+].[C-]#[O+].[C-]#[O+].[C-]#[O+] [[^99mTc]L2], which “PIP (PSMA+) tumor uptake on SPECT-CT” value [1] is on record?
**A.** weak PIP tumor uptake

**Q.** And the “uptake in normal organs” value [1]?
**A.** strong gallbladder uptake and kidney uptake

**Q.** Which “PIP:flu uptake ratio, held steady” value [3] does the source give for O=C(O)CCC(NC(=O)NC(CCCCNC(=O)CCCCCCC(=O)NCCCCC(C(=O)O)N(Cc1ccccn1)Cc1ccccn1)C(=O)O)C(=O)O.[99Tc+].[C-]#[O+].[C-]#[O+].[C-]#[O+] (centres unmarked) [[^99mTc]L3] here?
**A.** around 5

**Q.** And the “PIP (PSMA+) tumor uptake on SPECT-CT” value [1]?
**A.** strong PIP tumor uptake

**Q.** What about the “uptake in normal organs” value [1] of the same compound?
**A.** gallbladder uptake and clear visualization of the kidneys

**Q.** And the “tumor contrast on late SPECT-CT images” value [1]?
**A.** higher contrast of tumor with respect to background

**Q.** With O=C(O)CC[C@H](NC(=O)N[C@@H](CCCCNC(=O)CCCCCCCN(Cc1ccccn1)Cc1ccccn1)C(=O)O)C(=O)O.[99Tc+].[C-]#[O+].[C-]#[O+].[C-]#[O+] [[^99mTc]L5] as the compound, how does the “PIP (PSMA+) tumor uptake on SPECT-CT” value [1] read?
**A.** qualitatively similar to [^99mTc]L4

**Q.** Which “PIP (PSMA+) tumor uptake on SPECT-CT” value [1] does the source give for O=C(O)CC[C@H](NC(=O)N[C@@H](CCCCN(Cc1ccccn1)Cc1ccccn1)C(=O)O)C(=O)O.[99Tc+].[C-]#[O+].[C-]#[O+].[C-]#[O+] [[^99mTc]L6] here?
**A.** no PIP tumor-specific uptake

**Q.** Which Ki (PSMA) does the source give for “Tricarbonyl (2-[3-(5-{7-[5-(bis-pyridin-2-ylmethyl-amino)-1-carboxy-pentylcarbamoyl]-heptanoylamino}-1-carboxy-pentyl)-ureido]-pentanedioic acid) rhenium bromide [ReL1]” here?
**A.** 10.8 nM
